Reference: patent US20240284918A1, “INSECT REPELLENT COMPOSITION AND A METHOD OF REPELLING INSECTS” (Åbo Akademi, priority 2021, published 2024)

Tests used:
Aedes albopictus = assay: Mosquito repellent testing on human forearm in test cage (ASTM E951-83); format: in vivo; settings: text summary of Table 4
Experimental: The mosquitos used in this study were Aedes albopictus. Mosquito repellent activity of the tested samples (listed in Table 2) was assessed by using the test cage as described by Songkro et al (2012), in the American Society for Testing and Materials (ASTM) standard […]-83 Laboratory testing of non-commercial mosquito repellent composition on the skin. The sample was tested on human subject. The same volunteers tested all the formulations under laboratory conditions. According to the method described by Coucci and Müller (2018), 50 adult female Aedes albopictus mosquitoes were transferred into the mosquito proof enclosed cage with the help of aspirator tube. The compositions to be tested were applied to the forearm ([…]) of the volunteers. The applied hand was introduced into the cage and the number of bites was recorded. After every 30 minutes the volunteer hands were subjected to the cage for 5 minutes and the numbers of mosquito bites were noted. Same procedure was implemented for control. Control study is done by placing the forearm in cage without application of tested sample. Before starting each replication, the mosquitoes' propensity to bite is assessed by inserting an untreated forearm into the cage. […] According to this procedure different compositions were tested by applying on the forearm with fresh mosquitoes every time of testing.

[1] = test system: Ixodes larvae, nymph forms and adults (female and male); assay: Field testing, treated tick sheet dragging; format: in vivo; settings: treated cotton sheet dragged 35 x 10 m; 5% vanillin in all FA and HFA solutions; vs commercial product Punkkiassa (19% IR3535)
Source text: Tick-dragging method was adopted to study the effectiveness of the product in repelling ticks in their natural habitat in Ruissalo, Turku. A square of 1 m^2 cotton sheet was divided in three parallel divisions and the borders were marked with pencil: 100*45 cm division on both sides (A and B) and a 100*10 cm neutral strip in the middle (N). Both A and B were both treated with a solution from a solution test pair (or left untreated for control drags) from that side of the sheet that would face the ground during dragging. The neutral zone was always left untreated. The evenly sprayed solution was let settle on the sheet for ˜15 minutes before the first drag. The sheet was dragged for 10 m with the treated side down with moderate pace in an even, tick-friendly biotope. After every 10 meter drag, the treated side was inspected for Ixodes larvae, nymph forms and adults (female and male). Number of individuals in every (4) form per department (A, B or N) was counted. Every test pair/sheet was dragged 35 times during the same day between 08:00 AM and 02:00 PM. No new solution was added to the sheet during the day. The time of start for every draw was checked. We tested different product types for field studies like FA (5, 10, 20%) and HFA (10 & 20%) and also included a commercial tick repellent (Punkkiassa) as a positive control. […]

[2] = test system: Ixodes Ricinus (male, female and nymphs); assay: Tick repellent testing (treated cylinder/stick and human volunteer's forearm); format: in vivo; settings: stick test, FIG. 4
[3] = test system: nymphs and the female ticks of the Ixodus ricinu species; assay: Tick repellency of IR3535 (test results received from Entostudio laboratory, Italy); settings: in vivo

SMILES	mosquito repellent activity (in words) (Aedes albopictus)	repellency of nymphs in field test (FIG. 5) [1]	tick repellent activity (in words) [2]	repellency of nymphs and female ticks [3]
CC(=O)CCCC(C)CCCC(C)CCCC(C)C (stereo not drawn) [HFA, 6,10,14-trimethyl-pentadecanone]	efficient repellent activity	repelled nymphs very effectively compared to the commercial product		
CC(=O)CC/C=C(\C)CC/C=C(\C)CCC=C(C)C [FA, Farnesyl acetone]	efficient repellent activity	repelled nymphs very effectively compared to the commercial product		
C=C1CC[C@H]2O[C@]2(C)CC[C@@H]2[C@@H]1CC2(C)C [Caryophyllene oxide]			not very effective	
CCCCN(CCC(=O)OCC)C(C)=O [IR3535, 3-[N-butyl-N-acetyl]-aminopropionic acid, ethyl ester]				does not repel the nymphs and the female ticks
